DBAASP
In brackets after ≈: the same amount, converted by molar mass. Several values for one entry are separate records, joined by “and”; a condition that tells them apart may be missing. Equal entries are not always repeated. One block for each compound: values may come before it.

Tests used:
Assay in all cases: ≥ marks a high value that may be exact or a test limit, other limits are often not marked, values filed in µg/mL are converted to µM
[1] = tested on: Escherichia coli ATCC 25922
[2] = tested on: Staphylococcus aureus ATCC 29213
[3] = tested on: Candida albicans ATCC 37092
[4] = tested on: Acinetobacter baumannii NM109
[5] = tested on: Staphylococcus aureus V4180
[6] = tested on: Stenotrophomonas maltophilia B5/5
[7] = tested on: Staphylococcus aureus ATCC 25923
[8] = tested on: Pseudomonas aeruginosa ATCC 27853
[9] = tested on: Staphylococcus aureus S908
[10] = tested on: Stenotrophomonas maltophilia B32/4
[11] = tested on: Staphylococcus aureus 127/08
[12] = tested on: Acinetobacter baumannii NM75
[13] = tested on: Staphylococcus aureus 145/08
[14] = tested on: Acinetobacter baumannii NM8
[15] = tested on: Staphylococcus aureus T4/6
[16] = tested on: Candida albicans ATCC 90028
[17] = tested on: Staphylococcus epidermidis T37/8
[18] = tested on: Stenotrophomonas maltophilia U8908
[19] = tested on: Enterococcus faecalis ATCC 29212
[20] = tested on: Staphylococcus aureus 274/08
[21] = tested on: Escherichia coli ATCC 25726
[22] = tested on: Staphylococcus epidermidis T6/19
[23] = tested on: Staphylococcus epidermidis RP62A
[24] = tested on: Staphylococcus epidermidis RP62A/1
[25] = tested on: Acinetobacter baumannii NM124
[26] = tested on: Acinetobacter baumannii NM35
[27] = tested on: Klebsiella pneumoniae ATCC 700603
[28] = tested on: Stenotrophomonas maltophilia B6/2
[29] = tested on: Stenotrophomonas maltophilia B32/1
[30] = tested on: Staphylococcus aureus ATCC 43300
[31] = tested on: Klebsiella pneumoniae ATCC 13883
[32] = tested on: Listeria monocytogenes ATCC 19115
[33] = tested on: Salmonella enterica subsp. enterica serovar Enteritidis ATCC 13076
[34] = tested on: Staphylococcus aureus ATCC BAA-39
[35] = tested on: Streptococcus pneumoniae ATCC 49619
[36] = tested on: Acinetobacter baumannii
[37] = tested on: Klebsiella pneumoniae 1625
[38] = tested on: Enterobacter cloacae 2524
[39] = tested on: Escherichia coli 170
[40] = tested on: Enterobacter cloacae 6780
[41] = tested on: Klebsiella pneumoniae 913
[42] = tested on: Salmonella typhimurium
[43] = tested on: Pseudomonas aeruginosa 4677
[44] = tested on: Escherichia coli 4530
[45] = tested on: Staphylococcus aureus
[46] = tested on: Escherichia coli 363

MIC [1]: > 500 µM
MIC [2]: > 500 µM
MIC [3]: 30.5 µM (≈ 51.7 µg/mL)
Compound: CC[C@H](C)[C@H](NC(=O)[C@@H]1CCCN1C(=O)[C@H](CCCN=C(N)N)NC(=O)[C@@H]1CCCN1C(=O)CNC(=O)[C@@H]1CCCN1C(=O)[C@H](CCCN=C(N)N)NC(=O)[C@@H]1CCCN1C(=O)[C@H](Cc1ccccc1)NC(=O)[C@@H]1CCCN1C(=O)[C@H](CC(C)C)NC(=O)[C@@H]1CCCN1)C(=O)N1CCC[C@H]1C(=O)N[C@@H](CCCN=C(N)N)C(=O)N1CCC[C@H]1C(=O)O [PLPFPRPGPRPIPRP]

MIC [4]: ≥ 250 µM
MIC [5]: ≥ 250 µM
MIC [6]: ≥ 250 µM
MIC [7]: 125 µM (≈ 190 µg/mL)
MIC [8]: > 250 µM
MIC [9]: ≥ 125 µM
MIC [10]: ≥ 250 µM
MIC [11]: ≥ 125 µM
MIC [12]: ≥ 250 µM
MIC [13]: ≥ 250 µM
MIC [14]: ≥ 250 µM
MIC [15]: ≥ 250 µM
MIC [16]: ≥ 250 µM
MIC [17]: ≥ 250 µM
MIC [18]: ≥ 250 µM
MIC [19]: 250 µM (≈ 380 µg/mL)
MIC [20]: ≥ 250 µM
MIC [21]: ≥ 250 µM
MIC [22]: ≥ 125 µM
MIC [23]: ≥ 125 µM
MIC [24]: ≥ 125 µM
MIC [25]: ≥ 250 µM
MIC [26]: ≥ 250 µM
MIC [27]: > 250 µM
MIC [28]: ≥ 250 µM
MIC [29]: ≥ 250 µM
Compound: CC[C@H](C)[C@H](NC(=O)[C@H](C)NC(=O)[C@H](CCCCN)NC(=O)CNC(=O)[C@@H](NC(=O)[C@H](Cc1cnc[nH]1)NC(=O)CNC(=O)[C@H](CC(C)C)NC(=O)[C@H](CC(C)C)NC(=O)[C@@H](NC(=O)CNC(=O)[C@@H](NC(=O)[C@H](CC(C)C)NC(=O)CN)C(C)C)[C@@H](C)O)[C@@H](C)CC)C(=O)N[C@@H](CC(C)C)C(=O)NCC(=O)O [GLVGTLLGHIGKAILG]

MIC [7]: 2 µM (≈ 4.72 µg/mL)
MIC [1]: 4 µM and 5.66 µM
MIC [30]: 2 µM (≈ 4.72 µg/mL)
MIC [31]: 2 µM (≈ 4.72 µg/mL)
MIC [32]: 2 µM (≈ 4.72 µg/mL)
MIC [33]: 2 µM (≈ 4.72 µg/mL)
MIC [34]: 2 µM and 2.83 µM
Compound: CC[C@H](C)[C@H](NC(=O)[C@H](CCCCN)NC(=O)[C@H](CCCN=C(N)N)NC(=O)[C@H](CC(C)C)NC(=O)[C@H](Cc1ccccc1)NC(=O)[C@H](CCCN=C(N)N)NC(=O)CNC(=O)[C@H](Cc1ccccc1)NC(=O)[C@H](CCCN=C(N)N)NC(=O)CNC(=O)[C@H](CCCN=C(N)N)NC(=O)[C@H](CCC(N)=O)NC(=O)[C@@H](NC(=O)[C@@H](N)CC(C)C)C(C)C)C(=O)N[C@@H](CCCN=C(N)N)C(=O)N[C@@H](CCCN=C(N)N)C(=O)N[C@@H](Cc1ccccc1)C(=O)N[C@@H](CCCN=C(N)N)C(=O)O [LVQRGRFGRFLRKIRRFR]

MIC [35]: ≥ 50 µM
MIC [36]: 2.21 µM (≈ 4.35 µg/mL)
MIC [1]: 1.56 µM (≈ 3.07 µg/mL)
MIC [37]: 3.12 µM (≈ 6.14 µg/mL)
MIC [38]: ≥ 50 µM
MIC [39]: 1.56 µM (≈ 3.07 µg/mL)
MIC [40]: 3.12 µM (≈ 6.14 µg/mL)
MIC [41]: 6.25 µM (≈ 12.3 µg/mL)
MIC [42]: 4.38 µM (≈ 8.63 µg/mL)
MIC [43]: ≥ 50 µM
MIC [44]: ≥ 50 µM
Compound: CC[C@H](C)[C@H](NC(=O)CN)C(=O)N[C@@H](CC(C)C)C(=O)N[C@@H](CC(N)=O)C(=O)N[C@H](C(=O)N[C@H](C(=O)N[C@@H](CCCCN)C(=O)N[C@@H](CO)C(=O)N[C@H](C(=O)N[C@@H](C)C(=O)N[C@@H](CO)C(=O)N[C@@H](CCCCN)C(=O)N[C@@H](CC(C)C)C(=O)N[C@@H](CCCCN)C(=O)N[C@@H](CCCN=C(N)N)C(=O)N[C@@H](CCCCN)C(=O)N[C@@H](C)C(=O)N[C@@H](CCCCN)C(=O)O)[C@@H](C)CC)[C@@H](C)CC)[C@@H](C)O [GILNTIKSIASKLKRKAK]

MIC [45]: 9 µM (≈ 20.3 µg/mL)
MIC [46]: ≥ 50 µM
Compound: CC(C)C[C@H](NC(=O)[C@H](CCCN=C(N)N)NC(=O)[C@H](CCCN=C(N)N)NC(=O)[C@H](CC(C)C)NC(=O)[C@H](CC(C)C)NC(=O)[C@H](CCCN=C(N)N)NC(=O)[C@H](CCCN=C(N)N)NC(=O)[C@H](CC(C)C)NC(=O)[C@H](CC(C)C)NC(=O)[C@H](CCCN=C(N)N)NC(=O)[C@H](CCCN=C(N)N)NC(=O)[C@H](CC(C)C)NC(=O)[C@H](CCCN=C(N)N)NC(=O)[C@@H](N)CCCN=C(N)N)C(=O)N[C@@H](CCCN=C(N)N)C(=O)N[C@@H](CCCN=C(N)N)C(N)=O [RRLRRLLRRLLRRLRR]
